This note sets out measurements from ChEMBL document CHEMBL1143309, “Bisubstrate Inhibitors of the MYST HATs Esa1 and Tip60” (Bioorg Med Chem, 2009).

pIC50: −log10 of the molar value. Some results are limits rather than exact numbers.

The nature of experiment [1]: Inhibition of His6x-tagged yeast recombinant Esa1 (105-445) expressed in Escherichia coli BL21 (DE3) by liquid scintillation. Details: species or system Saccharomyces cerevisiae.
Experiment [2] addresses Histone acetyltransferase KAT2B (Homo sapiens, UniProt Q92831). Put plainly: Inhibition of PCAF HAT domain (493-658) expressed in Escherichia coli BL21 (DE3).
In experiment [3] the target is T1, Histone acetyltransferase KAT5 (Homo sapiens, UniProt Q92993). Put plainly: Inhibition of recombinant Tip60 (1-513) expressed in Escherichia coli BL21 (DE3) by liquid scintillation.
T1 sequence (Q92993 whole entry): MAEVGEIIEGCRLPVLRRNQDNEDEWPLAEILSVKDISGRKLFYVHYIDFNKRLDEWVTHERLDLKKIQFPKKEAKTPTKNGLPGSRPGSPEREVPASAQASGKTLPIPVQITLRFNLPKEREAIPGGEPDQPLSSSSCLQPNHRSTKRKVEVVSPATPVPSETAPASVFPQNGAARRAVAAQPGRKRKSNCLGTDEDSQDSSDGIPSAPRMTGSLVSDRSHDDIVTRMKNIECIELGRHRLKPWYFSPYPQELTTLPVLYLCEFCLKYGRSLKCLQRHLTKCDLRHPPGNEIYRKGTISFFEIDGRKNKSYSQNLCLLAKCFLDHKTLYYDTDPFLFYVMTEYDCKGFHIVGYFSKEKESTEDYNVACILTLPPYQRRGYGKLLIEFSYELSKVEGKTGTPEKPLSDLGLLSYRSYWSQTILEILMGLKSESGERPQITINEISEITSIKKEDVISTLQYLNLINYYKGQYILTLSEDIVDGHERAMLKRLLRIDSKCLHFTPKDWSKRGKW
Experiment [4] deals with Histone acetyltransferase p300 (Homo sapiens, UniProt Q09472). As to the kind of experiment: Inhibition of recombinant p300.
Sequence of Histone acetyltransferase p300 (Q09472 whole entry): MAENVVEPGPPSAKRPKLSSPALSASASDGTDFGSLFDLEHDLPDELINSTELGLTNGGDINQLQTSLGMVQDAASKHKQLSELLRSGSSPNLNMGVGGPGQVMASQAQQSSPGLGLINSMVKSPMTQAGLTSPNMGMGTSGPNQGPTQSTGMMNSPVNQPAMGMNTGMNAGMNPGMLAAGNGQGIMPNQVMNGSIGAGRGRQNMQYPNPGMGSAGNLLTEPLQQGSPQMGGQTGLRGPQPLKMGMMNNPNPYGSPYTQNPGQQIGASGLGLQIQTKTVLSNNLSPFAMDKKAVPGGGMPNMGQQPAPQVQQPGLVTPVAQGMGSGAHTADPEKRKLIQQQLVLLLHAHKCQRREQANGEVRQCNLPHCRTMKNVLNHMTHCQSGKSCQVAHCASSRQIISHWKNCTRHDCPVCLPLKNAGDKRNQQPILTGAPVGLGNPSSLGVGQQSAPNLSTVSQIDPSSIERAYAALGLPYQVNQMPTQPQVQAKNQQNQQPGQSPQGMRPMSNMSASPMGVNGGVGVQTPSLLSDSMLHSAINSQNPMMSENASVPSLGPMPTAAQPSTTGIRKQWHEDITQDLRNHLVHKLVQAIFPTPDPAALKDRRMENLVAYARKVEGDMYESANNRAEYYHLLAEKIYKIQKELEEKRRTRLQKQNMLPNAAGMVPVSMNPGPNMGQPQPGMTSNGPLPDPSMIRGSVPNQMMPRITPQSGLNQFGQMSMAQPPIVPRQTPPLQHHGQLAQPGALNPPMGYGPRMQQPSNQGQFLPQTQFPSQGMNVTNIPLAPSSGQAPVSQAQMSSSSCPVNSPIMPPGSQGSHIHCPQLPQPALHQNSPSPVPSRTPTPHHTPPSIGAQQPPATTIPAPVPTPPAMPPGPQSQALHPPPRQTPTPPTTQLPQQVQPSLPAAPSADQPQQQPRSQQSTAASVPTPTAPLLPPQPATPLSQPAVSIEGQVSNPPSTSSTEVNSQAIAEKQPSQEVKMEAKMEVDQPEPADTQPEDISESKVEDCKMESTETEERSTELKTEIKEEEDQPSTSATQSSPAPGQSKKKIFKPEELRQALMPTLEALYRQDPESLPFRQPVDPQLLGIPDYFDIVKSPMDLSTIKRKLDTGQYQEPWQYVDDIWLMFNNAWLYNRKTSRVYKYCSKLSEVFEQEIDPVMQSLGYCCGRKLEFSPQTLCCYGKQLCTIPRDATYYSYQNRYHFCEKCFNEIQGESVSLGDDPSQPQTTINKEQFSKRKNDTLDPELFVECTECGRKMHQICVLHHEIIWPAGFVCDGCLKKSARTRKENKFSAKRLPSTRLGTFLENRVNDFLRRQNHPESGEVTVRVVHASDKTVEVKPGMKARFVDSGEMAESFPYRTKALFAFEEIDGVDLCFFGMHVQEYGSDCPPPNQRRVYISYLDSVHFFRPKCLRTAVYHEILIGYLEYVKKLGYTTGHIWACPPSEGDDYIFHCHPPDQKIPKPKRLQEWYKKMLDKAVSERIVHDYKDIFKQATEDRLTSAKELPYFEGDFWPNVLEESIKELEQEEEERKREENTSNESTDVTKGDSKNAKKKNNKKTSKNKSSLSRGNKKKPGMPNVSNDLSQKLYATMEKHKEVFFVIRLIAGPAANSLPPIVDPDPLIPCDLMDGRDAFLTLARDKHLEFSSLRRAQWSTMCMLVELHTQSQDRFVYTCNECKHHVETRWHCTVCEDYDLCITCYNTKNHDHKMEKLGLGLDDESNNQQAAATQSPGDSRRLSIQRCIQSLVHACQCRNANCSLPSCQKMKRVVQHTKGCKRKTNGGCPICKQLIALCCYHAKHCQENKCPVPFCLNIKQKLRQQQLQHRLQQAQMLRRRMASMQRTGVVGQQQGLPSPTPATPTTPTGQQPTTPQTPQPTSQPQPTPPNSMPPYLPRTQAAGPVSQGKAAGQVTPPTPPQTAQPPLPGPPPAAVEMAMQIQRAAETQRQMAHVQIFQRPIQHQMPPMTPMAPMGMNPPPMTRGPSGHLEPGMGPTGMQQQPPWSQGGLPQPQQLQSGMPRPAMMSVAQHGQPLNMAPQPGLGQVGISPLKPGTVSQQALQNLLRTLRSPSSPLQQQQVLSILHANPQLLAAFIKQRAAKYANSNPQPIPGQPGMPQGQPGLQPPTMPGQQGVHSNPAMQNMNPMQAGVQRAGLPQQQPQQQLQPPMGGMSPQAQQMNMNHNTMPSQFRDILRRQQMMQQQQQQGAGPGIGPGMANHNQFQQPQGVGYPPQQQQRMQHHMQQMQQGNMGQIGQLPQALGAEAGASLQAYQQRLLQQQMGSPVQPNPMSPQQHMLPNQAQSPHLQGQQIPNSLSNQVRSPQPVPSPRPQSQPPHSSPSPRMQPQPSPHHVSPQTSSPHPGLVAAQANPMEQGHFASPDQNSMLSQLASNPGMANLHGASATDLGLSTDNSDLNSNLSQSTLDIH
Experiment [5] has as its target T1, Histone acetyltransferase KAT5. Put plainly: Inhibition of TIP60 in human HeLa cell extracts by ELISA.

Sequence of Histone acetyltransferase KAT2B (Q92831 whole entry, the tested form may be a part): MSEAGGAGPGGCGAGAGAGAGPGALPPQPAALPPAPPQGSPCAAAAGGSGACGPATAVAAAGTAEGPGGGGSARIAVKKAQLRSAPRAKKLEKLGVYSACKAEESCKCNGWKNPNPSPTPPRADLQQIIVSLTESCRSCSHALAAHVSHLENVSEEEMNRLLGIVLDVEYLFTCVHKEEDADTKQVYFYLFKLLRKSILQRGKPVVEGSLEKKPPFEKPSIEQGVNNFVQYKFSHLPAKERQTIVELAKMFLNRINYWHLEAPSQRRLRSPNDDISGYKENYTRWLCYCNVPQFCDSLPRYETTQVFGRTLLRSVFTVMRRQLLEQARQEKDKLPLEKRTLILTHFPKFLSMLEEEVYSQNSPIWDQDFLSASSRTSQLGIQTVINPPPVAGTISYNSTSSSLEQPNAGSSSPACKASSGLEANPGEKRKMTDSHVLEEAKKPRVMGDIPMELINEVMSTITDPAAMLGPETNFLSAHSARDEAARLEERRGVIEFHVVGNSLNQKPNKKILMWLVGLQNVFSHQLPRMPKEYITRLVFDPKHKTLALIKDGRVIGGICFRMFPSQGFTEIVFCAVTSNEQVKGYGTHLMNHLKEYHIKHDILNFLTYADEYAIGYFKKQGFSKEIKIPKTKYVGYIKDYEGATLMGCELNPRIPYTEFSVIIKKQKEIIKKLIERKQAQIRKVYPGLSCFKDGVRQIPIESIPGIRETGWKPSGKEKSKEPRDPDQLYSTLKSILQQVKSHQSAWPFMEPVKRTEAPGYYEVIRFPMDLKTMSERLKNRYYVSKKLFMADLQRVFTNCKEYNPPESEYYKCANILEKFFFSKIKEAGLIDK

Regarding `CC(C)(COP(=O)(O)OP(=O)(O)OC[C@H]1O[C@@H](n2cnc3c(N)ncnc32)[C@H](O)[C@@H]1OP(=O)(O)O)[C@@H](O)C(=O)NCCC(=O)NCCS` [COENZYME_A], the pIC50 in experiment [1] is 4.16; in experiment [2], 4.38; in experiment [3], 4.08; in experiment [4], 4.34.

`C=CC/C=C\C/C=C\CCCCCCCc1cccc(O)c1C(=O)O` [ANACARDIC ACID]: the negative-log IC50 (pIC50) in experiment [1] was 3.53; in experiment [2], 3.18; in experiment [5] it was 5.05; in experiment [3], 3.43; in experiment [4] it was below 3.00.

Regarding `CC(=O)N[C@@H](CCCCNC(=O)CSCCNC(=O)CCNC(=O)[C@H](O)C(C)(C)COP(=O)(O)OP(=O)(O)OC[C@H]1O[C@@H](n2cnc3c(N)ncnc32)[C@H](O)[C@@H]1OP(=O)(O)O)C(N)=O`, the pIC50 was 5.15 in experiment [1], 3.97 in experiment [2], 4.53 in experiment [3] and 6.01 in experiment [4].

As to `COc1cc(/C=C/C(=O)CC(=O)/C=C/c2ccc(O)c(OC)c2)ccc1O` [CURCUMIN], the pIC50 in experiment [1] is below 3.82; in experiment [3], below 3.70.
